This assay concerns the target T1, LXRβ (Homo sapiens, UniProt P55055).
T1 construct: Co-transfection expression plasmids, comprising full-length LXRα (pCMX-h LXRα[…] or LXRβ (pCMX-hLXRβ)); expressed in transfected cells; host or cells: CV-1 African Green Monkey Kidney Cells
T1 sequence (P55055 1-460): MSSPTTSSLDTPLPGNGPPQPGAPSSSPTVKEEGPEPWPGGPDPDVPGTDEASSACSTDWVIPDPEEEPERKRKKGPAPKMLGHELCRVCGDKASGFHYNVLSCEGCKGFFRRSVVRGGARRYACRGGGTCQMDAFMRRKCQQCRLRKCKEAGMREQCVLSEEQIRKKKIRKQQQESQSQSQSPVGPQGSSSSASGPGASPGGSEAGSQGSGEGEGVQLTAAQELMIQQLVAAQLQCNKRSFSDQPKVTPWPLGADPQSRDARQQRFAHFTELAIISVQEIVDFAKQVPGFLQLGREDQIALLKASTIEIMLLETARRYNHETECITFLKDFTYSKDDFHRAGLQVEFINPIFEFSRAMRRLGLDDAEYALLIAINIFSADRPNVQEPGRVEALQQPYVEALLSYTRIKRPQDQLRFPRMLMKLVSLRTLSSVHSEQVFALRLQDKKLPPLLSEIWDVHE
T1 sequence (P19793 1-462 partner): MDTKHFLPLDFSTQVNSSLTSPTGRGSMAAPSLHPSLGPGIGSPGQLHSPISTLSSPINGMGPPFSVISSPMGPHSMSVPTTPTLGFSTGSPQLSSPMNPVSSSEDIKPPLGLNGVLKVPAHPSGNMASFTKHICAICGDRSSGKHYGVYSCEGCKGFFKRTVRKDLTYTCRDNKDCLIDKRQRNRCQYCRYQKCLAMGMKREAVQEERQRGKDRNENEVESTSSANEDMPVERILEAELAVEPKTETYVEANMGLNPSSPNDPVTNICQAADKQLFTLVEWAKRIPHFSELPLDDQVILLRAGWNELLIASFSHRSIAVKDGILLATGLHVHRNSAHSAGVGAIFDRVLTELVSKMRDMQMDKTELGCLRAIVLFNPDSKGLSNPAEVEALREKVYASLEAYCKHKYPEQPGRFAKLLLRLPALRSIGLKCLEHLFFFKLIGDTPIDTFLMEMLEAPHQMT
Kind of assay: Co-transfection assay (LXRE luciferase reporter), LXRβ. The assay is classed as cell-based. Also on record: % Efficacy: concentration or dose not given beside the values. To be noted: for EC50: CV-1 cells transfected with pCMX-hLXRβ and LXREx1-Tk-Luciferase, 20 hours incubation; for Emax: read-out: % Efficacy. Put shortly: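 CV-1 cells transiently co-transfected with full-length human LXRβ (or LXRα), LXREx1-Tk-luciferase reporter and β-galactosidase control; compound added (10 μM final in single-point, 11-point ½-log curves, ≤0.5% DMSO) for 20 h at 37 °C. Luciferase read; EC50 from four-parameter fit, efficacy relative to reference agonist high control.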
For orientation: In a reporter assay the amount or activity of a reporter protein is the signal.

The mark [1] stands for this setting: LXRβ co-transfection, relative to high control 1-(2,4-difluorobenzyl)-2-oxo-6-(4-phenoxyphenyl)-4-(trifluoromethyl)-1,2-dihydropyridine-3-carbonitrile.

Broadly, the EC50 is the concentration at which the effect is half-maximal. For the molecule `Cc1nc(-c2cc(-c3cc(F)c(CO)c(S(C)(=O)=O)c3)ccc2-n2cc(C(F)(F)F)nc2C)c(-c2ccc3ccccc3c2)o1` [Example 437, (3-fluoro-4′-(2-methyl-4-(trifluoromethyl)-1H-imidazol-1-yl)-3′-(2-methyl-5-(naphthalen-2-yl)oxazol-4-yl)-5-(methylsulfonyl)biphenyl-4-yl)methanol], the concentration giving a half-maximal response (EC50) is 0.034 µM. Also, the Emax under setting [1] turned out to be 76%.
In the same order, the values of `Cc1nc(C(F)F)cn1-c1ccc(-c2cccc(S(=O)(=O)N(C)C)c2)cc1-n1nncc1-c1ccc(OC(F)(F)F)cc1` [Example 155, 4′-[4-(difluoromethyl)-2-methyl-1H-imidazol-1-yl]-N,N-dimethyl-3′-(5-{4-[(trifluoromethyl)oxy]phenyl}-1H-1,2,3-triazol-1-yl)biphenyl-3-sulfonamide] are 0.701 µM and 93%.
In turn, `Cc1cc(-c2cc(-c3cccc(S(C)(=O)=O)c3)ccc2-n2cc(C(F)(F)F)nc2C)n(-c2ccc(OC(F)F)cc2)n1` [Example 301, 1-(4-(difluoromethoxy)phenyl)-3-methyl-5-(4-(2-methyl-4-(trifluoromethyl)-1H-imidazol-1-yl)-3′-(methylsulfonyl)biphenyl-3-yl)-1H-pyrazole] registered an EC50 of 0.049 µM. In addition, under setting [1], the Emax was 91%.
`Cc1nc(C(=O)C(C)C)cn1-c1ccc(-c2cc(F)c(CO)c(S(C)(=O)=O)c2)cc1-n1nncc1-c1ccc(OC(F)(F)F)cc1` [Example 235, 1-(1-(3′-fluoro-4′-(hydroxymethyl)-5′-(methylsulfonyl)-3-(5-(4-(trifluoromethoxy)phenyl)-1H-1,2,3-triazol-1-yl)-[1,1′-biphenyl]-4-yl)-2-methyl-1H-imidazol-4-yl)-2-methylpropan-1-one] gave an EC50 of 2.27 µM. In addition, the Emax under setting [1] stood at 85%.
Molecule `Cc1nc(-c2cc(-c3cc(F)c(CO)c(S(C)(=O)=O)c3)ccc2-n2cc(C(F)(F)F)nc2C)c(-c2cccn(C(C)C)c2=O)o1` [Example 378, 3-(4-(3′-fluoro-4′-(hydroxymethyl)-4-(2-methyl-4-(trifluoromethyl)-1H-imidazol-1-yl)-5′-(methylsulfonyl)biphenyl-3-yl)-2-methyloxazol-5-yl)-1-isopropylpyridin-2(1H)-one] displayed an EC50 of 0.049 µM. For the same molecule, under setting [1], the Emax came to 24%.
`Cc1nc(C(F)(F)F)cn1-c1c(F)cc(-c2cc(Cl)c(CO)c(S(C)(=O)=O)c2)cc1-n1nncc1-c1ccc(OC(F)(F)F)cc1` [Example 197, [3-chloro-3′-fluoro-5-(methylsulfonyl)-4′-[2-methyl-4-(trifluoromethyl)-1H-imidazol-1-yl]-5′-(5-{4-[(trifluoromethyl)oxy]phenyl}-1H-1,2,3-triazol-1-yl)biphenyl-4-yl]methanol] came in with an EC50 of 0.252 µM. Besides, under setting [1], the Emax amounted to 76%.
As to `Cc1nc(-c2cc(-c3cccc(S(C)(=O)=O)c3)ccc2-n2cc(C(F)(F)F)nc2C)c(-c2ccc(OC(F)F)nc2)o1` [Example 384, 5-(6-(difluoromethoxy)pyridin-3-yl)-2-methyl-4-(4-(2-methyl-4-(trifluoromethyl)-1H-imidazol-1-yl)-3′-(methylsulfonyl)biphenyl-3-yl)oxazole], it took 0.012 µM to reach a half-maximal effect (EC50). Further, the Emax under setting [1] stood at 72%.
In the same order, the values of `Cc1nc(C(C)(F)F)cn1-c1ccc(-c2cccc(S(C)(=O)=O)c2)cc1-c1ocnc1-c1ccc(OC(F)(F)F)cc1` [Example 362, 5-{4-[4-(1,1-difluoroethyl)-2-methyl-1H-imidazol-1-yl]-3′-(methylsulfonyl)biphenyl-3-yl}-4-{4-[(trifluoromethyl)oxy]phenyl}-1,3-oxazole] are 0.691 µM and 75%.
`Cc1nc(-c2cc(-c3cc(F)c(CO)c(S(C)(=O)=O)c3)ccc2-n2cc(C(F)(F)F)nc2C)c(-c2ccc(F)cc2F)o1` [Example 454, (3′-(5-(2,4-difluorophenyl)-2-methyloxazol-4-yl)-3-fluoro-4′-(2-methyl-4-(trifluoromethyl)-1H-imidazol-1-yl)-5-(methylsulfonyl)biphenyl-4-yl)methanol] came in with an EC50 of 0.037 µM. For the same molecule, the Emax under setting [1] turned out to be 38%.
The molecule `Cc1nc(-c2cc(-c3cccc(S(C)(=O)=O)c3)ccc2-n2cc(C(F)(F)F)nc2C)c(-c2ccc(Cl)nc2Cl)o1` [Example 566, 5-(2,6-dichloropyridin-3-yl)-2-methyl-4-(4-(2-methyl-4-(trifluoromethyl)-1H-imidazol-1-yl)-3′-(methylsulfonyl)-[1,1′-biphenyl]-3-yl)oxazole] yielded an EC50 of 0.227 µM. Further, the Emax under setting [1] came out at 94%.
Molecule `Cc1nc(-c2cc(-c3cccc(S(C)(=O)=O)c3)ccc2-n2cc(C(C)O)nc2C)c(-c2ccc3c(c2)OC(F)(F)O3)o1` (single isomer, unassigned) [Example 514, 1-(1-(3-(5-(2,2-difluorobenzo[d][1,3]dioxol-5-yl)-2-methyloxazol-4-yl)-3′-(methylsulfonyl)-[1,1′-biphenyl]-4-yl)-2-methyl-1H-imidazol-4-yl)ethanol] displayed an EC50 of 3 µM. The “% Efficacy” value under setting [1] stood at 77%.
`Cc1nc(-c2cc(-c3cc(F)c(CO)c(S(C)(=O)=O)c3)ccc2-n2cc(C(F)(F)F)nc2C)c(-c2ccc(Cl)nc2)o1` [Example 551, (3′-(5-(6-chloropyridin-3-yl)-2-methyloxazol-4-yl)-3-fluoro-4′-(2-methyl-4-(trifluoromethyl)-1H-imidazol-1-yl)-5-(methylsulfonyl)-[1,1′-biphenyl]-4-yl)methanol] showed an EC50 of 0.522 µM. Besides, the Emax under setting [1] amounted to 79%.
The corresponding values for `Cc1nc(C(F)F)cn1-c1ccc(-c2cccc(S(C)(=O)=O)c2)cc1-n1nncc1-c1ccc(Cl)cc1Cl` [Example 163, 5-(2,4-dichlorophenyl)-1-{4-[4-(difluoromethyl)-2-methyl-1H-imidazol-1-yl]-3′-(methylsulfonyl)biphenyl-3-yl}-1H-1,2,3-triazole] are 1.6 µM and 61%.
On to `CCS(=O)(=O)c1cccc(-c2ccc(-n3cc(C(F)F)nc3C)c(-c3cnnn3Cc3ccc(Cl)cc3)c2)c1` [Example 247, 1-(4-chlorobenzyl)-5-(4-(4-(difluoromethyl)-2-methyl-1H-imidazol-1-yl)-3′-(ethylsulfonyl)-[1,1′-biphenyl]-3-yl)-1H-1,2,3-triazole], for which the midpoint of the response, the EC50, lay at 0.315 µM. For the same molecule, the Emax under setting [1] came out at 99%.
Regarding `Cc1nc(C(F)(F)F)cn1-c1ccc(-c2cccc(C(C)(C)C(N)=O)c2)cc1-n1nncc1Cc1cccc(Cl)c1` [Example 114, 2-(3′-{5-[(3-chlorophenyl)methyl]-1H-1,2,3-triazol-1-yl}-4′-[2-methyl-4-(trifluoromethyl)-1H-imidazol-1-yl]biphenyl-3-yl)-2-methylpropanamide], a half-maximal effect (EC50) was put at 0.94 µM. Moreover, the Emax under setting [1] is 98%.
Molecule `Cc1nc(C(F)(F)F)cn1-c1c(F)cc(-c2ccc(CO)c(S(C)(=O)=O)c2)cc1-n1nncc1-c1ccc(OC(F)(F)F)cc1` [Example 203, [3′-fluoro-3-(methylsulfonyl)-4′-[2-methyl-4-(trifluoromethyl)-1H-imidazol-1-yl]-5′-(5-{4-[(trifluoromethyl)oxy]phenyl}-1H-1,2,3-triazol-1-yl)biphenyl-4-yl]methanol] displayed an EC50 of 0.127 µM. Further, the Emax under setting [1] was found to be 71%.

Values taken from patent publication US9834542B2, “LXR modulators” (BRISTOL-MYERS SQUIBB COMPANY, priority 2013, dated 2017).
